Measured values published in paper PMC3514216, “SRC Homology 2 Domain Binding Sites in Insulin, IGF-1 and FGF receptor mediated signaling networks reveal an extensive potential interactome” (Cell Communication and Signaling : CCS, 2012).
Changes are numbered by the printed parent chain. Like-named read-outs stand apart in the source and are kept apart here.

What was measured:
Shb SH2 domain = Shb SH2 domain (Homo sapiens, UniProt Q15464); test: Fluorescence polarization solution binding; details: Rhodamine B-labeled peptide, GST-SH2, Beacon 2000, read-out: Affinity (KD)
Chain of Shb SH2 domain (Q15464 410-504 limits assumed): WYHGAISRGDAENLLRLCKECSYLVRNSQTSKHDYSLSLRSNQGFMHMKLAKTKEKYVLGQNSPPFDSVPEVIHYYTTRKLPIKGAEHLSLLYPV
From the text: (§1) To verify the binding results obtained from addressable peptide arrays we employed an orthogonal method of determining SH2 interactions with peptide ligands. We measured the dissociation constants of 60 binary SH2-peptide pairs in solution by fluorescence polarization (Table 2, Additional file 2: Figures S3A-C).
(§2) Peptides were synthesized using FMOC-chemistry onto pre-loaded tenta-gel resins. Peptides were then labeled with Rhodamine B (Abbey Color) and then cleaved using trifluoroacetic acid. Peptides were lyophilized and then purified using a LC/MS (Agilent 2100). Dissociation constants were measured using the Beacon 2000 (Invitrogen) as previously described.
(§3) Binding Affinities determined by Fluorescence Polarization. Rhodamine B-labeled peptides were mixed with varying concentrations of GST-tagged SH2 domains. Fluorescence polarization measurements were read on a Beacon 2000 (Invitrogen). The curves were fit to a Michaelis-Menten equation to calculate the dissociation constant, KD. […] (C) Affinity measurements that fell below the 2X mean intensity and were considered array negative on the SPOT array.

Ptpn11_N SH2 domain = biological target: T1, Ptpn11_N SH2 domain (Homo sapiens, UniProt Q06124); test: Fluorescence polarization solution binding; details: Rhodamine B-labeled peptide, GST-SH2, Beacon 2000, read-out: Affinity (KD)
T1 sequence (Q06124 6-102 limits assumed): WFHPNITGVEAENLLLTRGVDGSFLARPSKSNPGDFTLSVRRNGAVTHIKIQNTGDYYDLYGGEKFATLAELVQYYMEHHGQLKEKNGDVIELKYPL
From the text: as §1, §2, §3

PI3K1_C SH2 domain = PI3K1_C SH2 domain (Homo sapiens, UniProt P27986); test: Fluorescence polarization solution binding; details: Rhodamine B-labeled peptide, GST-SH2, Beacon 2000, read-out: Affinity (KD)
Chain of PI3K1_C SH2 domain (P27986 624-718 limits assumed): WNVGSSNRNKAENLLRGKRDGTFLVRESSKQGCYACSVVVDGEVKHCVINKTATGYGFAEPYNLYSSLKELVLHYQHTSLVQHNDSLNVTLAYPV
From the text: as §1, §2, §3

Plcg2_N SH2 domain = Plcg2_N SH2 domain (Homo sapiens, UniProt P16885); test: Fluorescence polarization solution binding; details: Rhodamine B-labeled peptide, GST-SH2, Beacon 2000, read-out: Affinity (KD)
Chain of Plcg2_N SH2 domain (P16885 532-635 limits assumed): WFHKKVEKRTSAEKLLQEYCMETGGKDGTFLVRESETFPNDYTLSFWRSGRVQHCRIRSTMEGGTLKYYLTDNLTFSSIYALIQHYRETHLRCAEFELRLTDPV
From the text: as §1
(§4) As noted above, this study performs well in terms of reproducing the literature reported interactions between the 50 SH2 domains tested and the 13 proteins represented on the addressable arrays (Table 1). A handful of differences with literature-reported interactions must, by necessity, be reconciled. Our assumption is that a high-throughput (HTP) study such as this one should capture upwards of 85% of known (literature reported) interactions and that results that differ from low throughput studies described in the literature should be subject to further testing to identify the nature of the discrepancy and reveal any weakness in the HTP dataset. […] For instance, FGFR1 Y-766 (SNQEpYLDLSMP) is reported to bind to PLCγ1 in a pTyr dependant manner based on mutational analysis of FGFR1 [55, 56]. […] This may imply that either this is a binding event specific to PLCγ1 (and not PLCγ2), or that the interaction reported at the level of the full-length protein may be more complex, perhaps requiring secondary contact sites that are not available within the context of the short peptide used in the current study. […] We have made an effort to limit false negatives to those of lower affinity, and we are aware of no instance in our dataset of a sub-micromolar affinity interaction being scored as array-negative.
(§5) Peptides were synthesized using FMOC-chemistry onto pre-loaded tenta-gel resins. […] Dissociation constants were measured using the Beacon 2000 (Invitrogen) as previously described.
(§6) Binding Affinities determined by Fluorescence Polarization. […] Fluorescence polarization measurements were read on a Beacon 2000 (Invitrogen). […]

Plcg2_C SH2 domain = Plcg2_C SH2 domain (Homo sapiens, UniProt P16885); test: Fluorescence polarization solution binding; details: Rhodamine B-labeled peptide, GST-SH2, Beacon 2000, read-out: Affinity (KD)
Chain of Plcg2_C SH2 domain (P16885 646-735 limits assumed): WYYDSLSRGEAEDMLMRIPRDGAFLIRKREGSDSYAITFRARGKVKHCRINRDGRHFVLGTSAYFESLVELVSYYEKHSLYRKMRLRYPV
From the text: as §1, §4, §5, §6

Rasa1_C SH2 domain = biological target: T2, Rasa1_C SH2 domain (Homo sapiens, UniProt P20936); test: Fluorescence polarization solution binding; details: Rhodamine B-labeled peptide, GST-SH2, Beacon 2000, read-out: Affinity (KD)
T2 sequence (P20936 351-441 limits assumed): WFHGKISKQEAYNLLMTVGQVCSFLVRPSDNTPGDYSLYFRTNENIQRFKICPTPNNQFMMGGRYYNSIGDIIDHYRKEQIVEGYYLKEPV

Grb2 SH2 domain [1] = biological target: T3, Grb2 SH2 domain (Homo sapiens, UniProt P62993); test: Fluorescence polarization solution binding; details: Rhodamine B-labeled peptide, GST-SH2, Beacon 2000, read-out: Affinity (KD)
T3 sequence (P62993 60-152 limits assumed): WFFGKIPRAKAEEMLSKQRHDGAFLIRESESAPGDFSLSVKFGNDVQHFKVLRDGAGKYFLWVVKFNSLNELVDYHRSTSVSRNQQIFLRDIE
From the text: as §1, §2, §3

CrkL SH2 domain [2] = biological target: T4, CrkL SH2 domain (Homo sapiens, UniProt P46109); test: Fluorescence polarization solution binding; details: Rhodamine B-labeled peptide, GST-SH2, Beacon 2000, read-out: Affinity (KD)
T4 sequence (P46109 14-102 limits assumed): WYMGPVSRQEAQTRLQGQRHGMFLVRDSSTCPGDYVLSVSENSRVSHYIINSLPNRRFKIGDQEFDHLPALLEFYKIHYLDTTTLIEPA
From the text: as §1, §2, §3

PI3K1_N SH2 domain = PI3K1_N SH2 domain (Homo sapiens, UniProt P27986); test: Fluorescence polarization solution binding; details: Rhodamine B-labeled peptide, GST-SH2, Beacon 2000, read-out: Affinity (KD)
Chain of PI3K1_N SH2 domain (P27986 333-428 limits assumed): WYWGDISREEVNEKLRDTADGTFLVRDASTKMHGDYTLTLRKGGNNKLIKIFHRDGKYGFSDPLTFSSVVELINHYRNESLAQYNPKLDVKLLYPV
From the text: as §1, §2, §3

Nck1 SH2 domain [3] = biological target: T5, Nck1 SH2 domain (Homo sapiens, UniProt P16333); test: SPOT peptide array; type: binding; details: GST-SH2 0.25 μM, membrane-bound peptide, 1 mM DTT, LiCor read-out
Procedure, shortened: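 Membrane-bound 11-mer phosphotyrosine peptides from insulin, IGF-1 and FGF receptors, their substrates and signaling proteins were probed with GST–SH2 fusions and detected with anti-GST and near-infrared secondary antibodies. Spots >3× the membrane mean scored positive and below the mean negative. GST-only "sticky" peptides were excluded.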

Nck1 SH2 domain [4] = biological target: T5, Nck1 SH2 domain; set-up: method as in PMID 16636066; details: peptide similar to the TIR10 peptide (EHIpYDEVAAD); read-out: Affinity (KD); cited from earlier work
CrkL SH2 domain [5] = biological target: T4, CrkL SH2 domain; set-up: method as in earlier work; details: SH2 protein microarray; N.B. = non binding; read-out: Protein Microarray (Macbeath) – KD; cited from earlier work
Grb2 SH2 domain [6] = biological target: T3, Grb2 SH2 domain; set-up: method as in earlier work; details: SH2 protein microarray; N.B. = non binding; read-out: Protein Microarray (Macbeath) – KD; cited from earlier work
Abl1 SH2 domain = biological target: T6, Abl1 SH2 domain (Homo sapiens, UniProt P00519); set-up: method as in earlier work; details: SH2 protein microarray; N.B. = non binding; read-out: Protein Microarray (Macbeath) – KD; cited from earlier work
T6 sequence (P00519 127-217 limits assumed): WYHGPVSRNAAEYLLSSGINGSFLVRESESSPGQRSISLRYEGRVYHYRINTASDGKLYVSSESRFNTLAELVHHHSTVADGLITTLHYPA

Abl2 SH2 domain = biological target: T7, Abl2 SH2 domain (Homo sapiens, UniProt P42684); set-up: method as in earlier work; details: SH2 protein microarray; N.B. = non binding; read-out: Protein Microarray (Macbeath) – KD; cited from earlier work
T7 sequence (P42684 173-263 limits assumed): T6 sequence (P00519 127-217 limits assumed) with N9S, G18L, R35L, A53T, S54A, L58V, S61T, S62A, N67S, I84V

Rasa1_N SH2 domain = Rasa1_N SH2 domain (Homo sapiens, UniProt P20936); test: Fluorescence polarization solution binding; details: Rhodamine B-labeled peptide, GST-SH2, Beacon 2000, read-out: Affinity (KD)
Chain of Rasa1_N SH2 domain (P20936 181-272 limits assumed): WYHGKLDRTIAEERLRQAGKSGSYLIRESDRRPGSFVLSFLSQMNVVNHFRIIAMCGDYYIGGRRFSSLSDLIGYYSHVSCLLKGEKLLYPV

**Q.** What does the source list for `CC(C)C[C@H](NC(=O)[C@H](CC(=O)O)NC(=O)[C@H](CC(C)C)NC(=O)[C@H](Cc1ccc(OP(=O)(O)O)cc1)NC(=O)[C@H](CCC(=O)O)NC(=O)[C@H](CC(=O)O)NC(=O)[C@@H](NC(=O)[C@@H](N)CO)[C@@H](C)O)C(=O)N[C@@H](CO)C(=O)N[C@@H](C)C(=O)N1CCC[C@H]1C(=O)O` [STDEpYLDLSAP]?
**A.** Kd (Shb SH2 domain): > 50000 nM; Kd (Ptpn11_N SH2 domain): 25000 nM; Kd (PI3K1_C SH2 domain): 2140 nM; Kd (Plcg2_N SH2 domain): > 50000 nM; Kd (Plcg2_C SH2 domain): 7490 nM; Kd (Rasa1_C SH2 domain): > 17000 nM

**Q.** For `CC[C@H](C)[C@H](NC(=O)[C@H](Cc1ccc(OP(=O)(O)O)cc1)NC(=O)[C@H](CC(N)=O)NC(=O)[C@H](CC(C)C)NC(=O)CNC(=O)[C@@H](N)CC(N)=O)C(=O)N[C@@H](CC(=O)O)C(=O)N[C@@H](CC(C)C)C(=O)N[C@@H](CC(=O)O)C(=O)N[C@@H](CC(C)C)C(=O)N[C@H](C(=O)O)C(C)C` [NGLNpYIDLDLV], which Kd (Grb2 SH2 domain [1]) is on record?
**A.** Its Kd is > 50000 nM.

**Q.** And the Kd (CrkL SH2 domain [2])?
**A.** Its Kd is > 50000 nM.

**Q.** And the Kd (PI3K1_N SH2 domain)?
**A.** The Kd was 15000 nM.

**Q.** Which Array positive (Nck1 SH2 domain [3]) does the source give for “GLDEpYDEVPMP [11-mer phosphotyrosine control peptide, B3AT (Y921), similar to the TIR10 peptide, reference compound]” here?
**A.** Its Array positive is “Yes (Array-positive binding was ascribed to interactions with intensities greater than three times the array mean)”.

**Q.** What about the Kd (Nck1 SH2 domain [4]) of the same molecule?
**A.** The Kd was 60 nM.

**Q.** Which Kd (CrkL SH2 domain [5]) does the source give for “QARRPPGLEpYCYNPSHND* (QARRPPGLEYCYNPSHND) [FGFR1 Y583 phosphopeptide; Cys replaced with Ala or Ser on peptide arrays]” here?
**A.** Its Kd is 1550 nM.

**Q.** What about the Kd (Grb2 SH2 domain [6]) of the same molecule?
**A.** Its Kd is 1620 nM.

**Q.** And the Kd (Abl1 SH2 domain)?
**A.** Its Kd is 1800 nM.

**Q.** And the Kd (Abl2 SH2 domain)?
**A.** The Kd was 340 nM.

**Q.** Which Kd (Ptpn11_N SH2 domain) does the source give for `CC(C)C[C@H](NC(=O)[C@H](CCC(=O)O)NC(=O)[C@H](Cc1ccc(OP(=O)(O)O)cc1)NC(=O)CNC(=O)[C@H](CCC(=O)O)NC(=O)[C@H](CCC(=O)O)NC(=O)[C@@H](N)CCCCN)C(=O)N1CCC[C@H]1C(=O)N[C@@H](Cc1ccc(O)cc1)C(=O)N[C@@H](CC(N)=O)C(=O)N1CCC[C@H]1C(=O)O` [KEEGpYELPYNP] here?
**A.** Its Kd is > 50000 nM.

**Q.** And the Kd (PI3K1_C SH2 domain)?
**A.** Its Kd is 13000 nM.

**Q.** What about the Kd (PI3K1_N SH2 domain) of the same molecule?
**A.** Its Kd is 1850 nM.

**Q.** And the Kd (Rasa1_N SH2 domain)?
**A.** The Kd was 410 nM.

**Q.** And the Kd (Rasa1_C SH2 domain)?
**A.** The Kd was 1390 nM.
